Source: paper doi:10.1101/2024.08.25.609621 (bioRxiv, 2024)
Values joined by “and” are separate entries in the source; they are usually repeats but may differ in a detail not shown here. Identical values can stand only once. Like-named read-outs stand apart in the source and are kept apart here.

Assays:
[1] = biological target: SARS-CoV-2 NSP3 macrodomain (Mac1) (Severe acute respiratory syndrome coronavirus 2, UniProt P0DTD1); experiment: biochemical; assay type: binding
[2] = biological target: SARS-CoV-2 NSP3 macrodomain (Mac1), P43 crystal form (Severe acute respiratory syndrome coronavirus 2, UniProt P0DTD1); assay type: binding; conditions: for PanDDA run, TFA/DMSO background map: 1-BDC / PanDDA run, TFA/DMSO background map: Hit: soak concentration 10 mM; for 1-BDC: PanDDA background density correction; for X-ray crystal structure: X-ray crystal structure determined (TRUE); for Total number of conformations: ligand conformations modeled in Mac1 crystal structure; for 2*(1-BDC) (%): occupancy estimate from PanDDA BDC; for Binding site: site of ligand in X-ray crystal structure
[3] = Single dose, concentration 200 μM, read-out: Average % competition
[4] = preliminary screen, compound at 200 μM, mean of 3-4 technical replicates, read-out: % competition in HTRF assay
[5] = ligand modeling in Mac1 crystal soak
[6] = Single dose, concentration 200 μM, read-out: SARS CoV-2 macrodomain HTRF assay: Average % competition
[7] = stereoisomer(s) of ligand modeled in Mac1 crystal structure
[8] = dose-response, read-out: SARS CoV-2 macrodomain HTRF assay: IC50
[9] = dose-response, read-out: SARS CoV-2 macrodomain HTRF assay: Ki
[10] = from SARS CoV-2 macrodomain HTRF assay
[11] = crystal soak 10 mM, P43 crystals
[12] = crystal soak 10 mM, DMSO background map
[13] = SARS CoV-2 macrodomain HTRF assay
[14] = SARS CoV-2 macrodomain HTRF assay, dose-response, read-out: Ki
[15] = SARS CoV-2 macrodomain HTRF assay, dose-response
[16] = crystal soak 10 mM, DMSO background map, event 1
[17] = ligand modeling in Mac1 crystal structure
[18] = stereoisomer(s) modeled in Mac1 crystal structure
[19] = SARS CoV-2 macrodomain HTRF assay, dose-response, read-out: IC50

SMILES | inhibition at 200 µM [1, 4] [%] | Number of isomers bound [2, 5] | IC50 [1, 8] [µM] | Ki [1, 9] [µM] | Ligand efficiency (binding enery per heavy atom) [1, 10] | Number of isomers bound [2, 17] | Isomers modeled [2, 18] | further results
OCC(Nc1ncnc2[nH]ccc12)c1ccccc1 (centres unmarked) [AVI-3715] | 54 | 1 | – | – | – | – | – | inhibition at 200 µM [1, 3]: 54%; PanDDA run, TFA/DMSO background map: 1-BDC ([2]; TFA/DMSO background map): 0.09; PanDDA run, TFA/DMSO background map: Hit ([2]; TFA/DMSO background map): TRUE
OCC1COCCN1c1ncnc2[nH]ccc12 (centres unmarked) [AVI-3717] | 62 | 2 | – | – | – | – | – | inhibition at 200 µM [1, 6]: 62%; Isomers modeled [2, 7]: R,S
CC(C)(C)C1CCC(CO)N(c2ncnc3[nH]ccc23)C1 (centres unmarked) [AVI-3719] | 36 | 1 | – | – | – | – | – | inhibition at 200 µM [1, 6]: 36%
OC[C@@H]1C[C@@H]2CCC[C@@H]2N1c1ncnc2[nH]ccc12 [AVI-3720] | – | 1 | 28 | 26 | 0.33 | – | – | Isomers modeled [2, 7]: SSS
CN1CCN(c2ncnc3[nH]ccc23)C(CO)C1 (centres unmarked) [AVI-3721] | 11 | 1 | – | – | – | – | – | inhibition at 200 µM [1, 6]: 11%; Isomers modeled [2, 7]: R,R
CC(C)(C)[C@@H]1CCN(c2ncnc3[nH]ccc23)[C@H](CO)C1 [AVI-3722] | 22 | 1 | – | – | – | – | – | inhibition at 200 µM [1, 6]: 22%
OC[C@H]1CN2CCC[C@H]2CN1c1ncnc2[nH]ccc12 [AVI-3724] | < 10 | – | – | – | – | – | – | inhibition at 200 µM [1, 6]: < 10%; Pandda run, overall: Hit [2, 11]: TRUE; Pandda run, overall: Modeling comment [2, 11]: Weak density, not modeled; PanDDA run, DMSO background map: 1-BDC [2, 12]: 0.05; PanDDA run, DMSO background map: Hit [2, 12]: TRUE
CC1(C)CCC(CO)N(c2ncnc3[nH]ccc23)C1 (centres unmarked) [AVI-3726] | 76 | 2 | – | – | – | – | – | inhibition at 200 µM [1, 6]: 76%; Isomers modeled [2, 7]: R,R,S
OCC1CC2(CCCCC2)CN1c1ncnc2[nH]ccc12 (centres unmarked) [AVI-3727] | 67 | 1 | – | – | – | – | – | inhibition at 200 µM [1, 6]: 67%; PanDDA run, TFA/DMSO background map: 1-BDC ([2]; TFA/DMSO background map): 0.25; PanDDA run, TFA/DMSO background map: Hit ([2]; TFA/DMSO background map): TRUE
OCC1CC2(CCC2)CN1c1ncnc2[nH]ccc12 (centres unmarked) [AVI-3728] | 79 | 1 | – | – | – | – | – | inhibition at 200 µM [1, 6]: 79%; PanDDA run, TFA/DMSO background map: 1-BDC ([2]; TFA/DMSO background map): 0.26; PanDDA run, TFA/DMSO background map: Hit ([2]; TFA/DMSO background map): TRUE; Isomers modeled [2, 7]: S,S
C[C@@H](O)[C@H](CO)Nc1ncnc2[nH]ccc12.O=C(O)C(F)(F)F [AVI-3730] | 63 | 1 | – | – | – | – | – | inhibition at 200 µM [1, 3]: 63%; PanDDA run, TFA/DMSO background map: 1-BDC ([2]; TFA/DMSO background map): 0.12; PanDDA run, TFA/DMSO background map: Hit ([2]; TFA/DMSO background map): TRUE
O=C(O)C(F)(F)F.OC1([C@H]2CCCN2c2ncnc3[nH]ccc23)Cc2ccccc2C1 [AVI-3731] | – | 1 | – | 3.4 | 0.31 | – | – | fold more potent compared to open state binders reported previously ([1]; open state of Phe132 loop): 10–50 fold; IC50 ([1]; read-out: HTRF IC50): 3.7 µM; PanDDA run, TFA/DMSO background map: 1-BDC ([2]; TFA/DMSO background map): 0.14; PanDDA run, TFA/DMSO background map: Hit ([2]; TFA/DMSO background map): TRUE
Cc1nn(C)cc1C1CCC(CO)N1c1ncnc2[nH]ccc12 (centres unmarked) [AVI-3733] | 44 | 1 | – | – | – | – | – | inhibition at 200 µM [1, 6]: 44%
OCCC(CO)Nc1ncnc2[nH]ccc12 (centres unmarked) [AVI-3734] | – | 1 | – | – | – | – | – | Ligand efficiency (binding enery per heavy atom) [1, 13]: 0.37; Ki [1, 14]: 48 µM; IC50 ([1]; read-out: HTRF IC50): 52 µM
Cc1c[nH]c2ncnc(NCC(C)(C)O)c12 [AVI-3758, 2-methyl-1-((5-methyl-7H-pyrrolo[2,3-d]pyrimidin-4-yl)amino)propan-2-ol] | – | – | – | – | – | 1 | achiral,achiral | Hill slope ([1]; HTRF dose-response fit, Mac1): 1.0; Ligand efficiency (binding enery per heavy atom) [1, 13]: 0.40; Hill slope [1, 15]: 1.0; Ki [1, 14]: 26 µM; IC50 ([1]; read-out: HTRF IC50): 28 µM; Occupancy difference (refined_occupancy - 2*(1-BDC)) [2]: 22; Refined ligand occupancy (%) [2]: 50%; 1-BDC [2]: 0.14; X-ray crystal structure [2]: TRUE; Hit (PanDDA run, overall) [2, 11]: TRUE; Hit (PanDDA run, DMSO background map) [2, 12]: TRUE; 1-BDC (PanDDA run, DMSO background map) [2, 16]: 0.19 and 0.14; Total number of conformations [2]: 2; 2*(1-BDC) (%) [2]: 28%; Binding site [2]: Adenosine
Cc1c[nH]c2ncnc(NCC3(O)CCCC3)c12 [AVI-3760, 1-(((5-methyl-7H-pyrrolo[2,3-d]pyrimidin-4-yl)amino)methyl)cyclopentan-1-ol] | – | – | – | – | – | 1 | achiral,achiral | Hill slope ([1]; HTRF dose-response fit, Mac1): 1.1; Ligand efficiency (binding enery per heavy atom) [1, 13]: 0.36; Hill slope [1, 15]: 1.1; IC50 [1, 19]: 19 µM; Ki [1, 14]: 18 µM; Occupancy difference (refined_occupancy - 2*(1-BDC)) [2]: 18; Refined ligand occupancy (%) [2]: 50%; 1-BDC [2]: 0.16; X-ray crystal structure [2]: TRUE; Hit (PanDDA run, overall) [2, 11]: TRUE; Hit (PanDDA run, DMSO background map) [2, 12]: TRUE; 1-BDC (PanDDA run, DMSO background map) [2, 16]: 0.19 and 0.16; Total number of conformations [2]: 2; 2*(1-BDC) (%) [2]: 32%; Binding site [2]: Adenosine
Cc1c[nH]c2ncnc(NCC3(O)CCCCC3)c12 [AVI-3761, 1-(((5-methyl-7H-pyrrolo[2,3-d]pyrimidin-4-yl)amino)methyl)cyclohexan-1-ol] | – | – | – | – | – | – | – | Ki [1]: 12 µM; IC50 ([1]; HTRF IC50): 13 µM; Isomers modeled [2]: achiral; Number of isomers bound [2]: 1

SMILES | inhibition at 200 µM [1, 4] [%] | Number of isomers bound [2, 5] | IC50 [1, 8] [µM] | Ki [1, 9] [µM] | Ligand efficiency (binding enery per heavy atom) [1, 10] | Number of isomers bound [2, 17] | Isomers modeled [2, 18] | further results
CC(O)C1CCCN1c1ncnc2[nH]ccc12 (centres unmarked) [AVI-4062] | – | – | – | 51 | 0.35 | 1 | – | fold decrease in affinity compared to AVI-607 ([1]; HTRF): ~ 3 fold; IC50 ([1]; read-out: HTRF IC50): 55 µM
O=C(O)C(F)(F)F.OC[C@H](Cc1ccc(O)cc1)Nc1ncnc2[nH]ccc12 [AVI-4066] | – | – | – | – | – | 1 | – | Ligand efficiency (binding enery per heavy atom) [1, 13]: 0.21; IC50 [1, 19]: 720 µM; Ki [1, 14]: 670 µM; Hit (PanDDA run, TFA/DMSO background map) ([2]; crystal soak 10 mM, TFA/DMSO background map): TRUE; 1-BDC (PanDDA run, TFA/DMSO background map) ([2]; crystal soak 10 mM, TFA/DMSO background map, event 1): 0.19 and 0.29 and 0.3
CC(C)(O)C1N(c2ncnc3[nH]ccc23)CCC1(C)C (centres unmarked) [AVI-4126] | – | – | 100 | 93 | 0.28 | 2 | R,S | –
CC(C)(O)C1C2CCCCC2CN1c1ncnc2[nH]ccc12 (centres unmarked) [AVI-4127] | – | – | 130 | 120 | 0.25 | 2 | SSR,SRS | –
CC(C)(O)C1C2CCC2CN1c1ncnc2[nH]ccc12 (centres unmarked) [AVI-4128] | – | – | – | 22 | 0.32 | 1 | SRR | IC50 ([1]; read-out: HTRF IC50): 24 µM
Cc1c[nH]c2ncnc(NCC3(O)CCOCC3)c12 [AVI-4194, 4-(((5-methyl-7H-pyrrolo[2,3-d]pyrimidin-4-yl)amino)methyl)tetrahydro-2H-pyran-4-ol] | – | – | 160 | 150 | 0.28 | 1 | achiral | –
Cc1c[nH]c2ncnc(NCC3(O)CCSCC3)c12 [AVI-4195, 4-(((5-methyl-7H-pyrrolo[2,3-d]pyrimidin-4-yl)amino)methyl)tetrahydro-2H-thiopyran-4-ol] | – | – | 52 | 48 | 0.31 | 1 | achiral | –
CC1CCCC(O)(CNc2ncnc3[nH]ccc23)C1 (centres unmarked) [AVI-4307] | – | – | 40 | 37 | 0.32 | 1 | – | –
OC1(CNc2ncnc3[nH]ccc23)CCC(F)(F)CC1 [AVI-4308] | – | – | 140 | 130 | 0.27 | 1 | achiral | –
OC1(CNc2ncnc3[nH]ccc23)CCCC(C(F)(F)F)C1 (centres unmarked) [AVI-4309] | – | – | 150 | 140 | 0.24 | 1 | – | –
OC1(CNc2ncnc3[nH]ccc23)CCCOC1 (centres unmarked) [AVI-4311] | – | – | 170 | 160 | 0.29 | 1 | – | –
CC1CCC(O)(CNc2ncnc3[nH]ccc23)CC1 (centres unmarked) [AVI-4312] | – | – | 21 | 20 | 0.34 | 1 | rr | –
OC1(CNc2ncnc3[nH]ccc23)COC2CC1C2 (centres unmarked) [AVI-4313] | – | – | 130 | 120 | 0.29 | 1 | – | –
OC1(CNc2ncnc3[nH]ccc23)CCOCC1 [AVI-4314] | – | – | 230 | 210 | 0.28 | 1 | achiral | –
O=S1(=O)CCCC(O)(CNc2ncnc3[nH]ccc23)C1 (centres unmarked) [AVI-4317] | – | – | – | 100 | 0.28 | 1 | – | fold less potent compared to the AVI-3761 parent ([1]; HTRF IC50): ~ 4 fold; IC50 ([1]; read-out: HTRF IC50): 110 µM
CN(CC1(O)CCOCC1)c1ncnc2[nH]ccc12 [AVI-4318] | – | – | 71 | 66 | 0.30 | 1 | achiral | –
